The source of these data is patent US20220389019A1, “TrkB POSITIVE ALLOSTERIC MODULATORS” (Université de Strasbourg, priority 2019, published 2022).

The subject of assay [1] is TrkB. Kind of assay: TrkB phosphorylation assay: potentiation of BDNF-induced TrkB phosphorylation in cortical neurons. It counts as cell-based. The following applies: potentation at a PAM concentration of 10 nM of 0.4 nM BDNF-induced TrkB phosphorylation in cortical neurons. An excerpt:
It is meant by “positive allosteric modulator” (PAM), also known as allosteric enhancer or potentiator, a compound that induces an amplification of the effect of receptor's response to the primary ligand without directly activating the receptor. Within this invention, PAM TrkB activity is related to the potentation of BDNF effects on the functional activity of the TrkB receptor, measured in vitro or in vivo by mean of a specific TrkB receptor phosphorylation assay.
In Vitro Activity of LIT-TB Derivatives in a TrkB Phosphorylation Assay

Assay [2] relates to PC12-TrkB cells. The following applies: BDNF, 48 hours. As for the experimental part: (§1) Nnr5 PC12-TrkA and nnr5 PC12-TrkB cells are NGF-nonresponding mutant PC12 cells stably transfected with TrkA and TrkB, respectively. Activation of TrkA and TrkB was assessed in nnr5 PC12-TrkB or -TrkA cells by quantifying the level of phospho-Trk at Tyrosine 706 (Y706) after addition of BDNF (1 nM) or NGF (2 nM), respectively, for 15 min in presence or absence of TB001 at various concentrations (0.1, 10 and […]), as previously done. Activation of downstream signaling pathway was assessed by quantifying phospho-ERK in the same cells. Neurite outgrowth was determined by counting the number the number of cells bearing neurites longer than 2 cells in diameter, 48 hours after initial treatment, as described earlier.
(§2) Selectivity of LIT-TB001 toward signaling activation and biological function was tested in PC12-TrkB or PC12-TrkA cells, in presence of BDNF (TrkB) or NGF (TrkA). Key experiments were recapitulated in either TrkA or TrkB-expressing cells to test for TB selectivity: Trk phosphorylation, ERK phosphorylation and neurite outgrowth (FIG. 1).

Assay [3] addresses TrkA (Homo sapiens, UniProt P04629). The following applies: PC12-TrkA cells, presence or absence of NGF (2 nM). As for the experimental part:
as §1, §2

In assay [4] the target is TrkB (Homo sapiens, UniProt Q16620). The following applies: PC12-TrkB cells, BDNF 1 nM. As for the experimental part: as §1, §2
TrkB (Homo sapiens, UniProt Q16620), sequence (Q16620 32-822, species assumed): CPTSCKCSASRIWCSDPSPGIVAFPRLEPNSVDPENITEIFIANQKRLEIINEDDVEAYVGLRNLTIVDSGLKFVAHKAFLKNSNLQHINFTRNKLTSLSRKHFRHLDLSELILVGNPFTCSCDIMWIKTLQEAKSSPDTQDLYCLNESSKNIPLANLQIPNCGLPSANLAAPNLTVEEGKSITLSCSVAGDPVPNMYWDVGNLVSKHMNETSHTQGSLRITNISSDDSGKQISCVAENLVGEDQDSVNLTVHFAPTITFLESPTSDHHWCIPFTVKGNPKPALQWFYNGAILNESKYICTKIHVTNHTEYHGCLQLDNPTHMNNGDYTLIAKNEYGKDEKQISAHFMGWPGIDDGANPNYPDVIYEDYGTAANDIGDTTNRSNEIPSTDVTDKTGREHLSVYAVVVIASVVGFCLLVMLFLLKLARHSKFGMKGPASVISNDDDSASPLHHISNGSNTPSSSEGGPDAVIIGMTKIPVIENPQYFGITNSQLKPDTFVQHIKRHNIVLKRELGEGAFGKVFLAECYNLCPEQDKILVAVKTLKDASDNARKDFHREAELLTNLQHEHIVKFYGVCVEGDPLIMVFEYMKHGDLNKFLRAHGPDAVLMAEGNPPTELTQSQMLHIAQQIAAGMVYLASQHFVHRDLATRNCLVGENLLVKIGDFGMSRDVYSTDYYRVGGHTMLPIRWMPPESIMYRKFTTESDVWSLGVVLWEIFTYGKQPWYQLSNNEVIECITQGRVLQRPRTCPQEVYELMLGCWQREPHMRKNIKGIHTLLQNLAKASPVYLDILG
Assay [5] relates to 45 kinases. Kind of assay: Kinome profile (ExpresS Diversity Kinase Panel, TR-FRET LANCE). It counts as biochemical. The following applies: 10 μM. As for the experimental part:
FIG. 2 represents the […] inhibition of the catalytic activity of 45 kinases (ExpresS Diversity Kinase Panel, Eurofins Discovey, item # P10) by LIT-TB001 at a concentration of 10 μM. For each kinase, the effect of the compound on the ATP-induced kinase-mediated substrate phosphorylation is measured by the TR-FRET LANCE technology.
A kinome profile was next performed to test LIT-TB001 selectivity toward other kinases.

For assay [6], the target named is TrkB (Mus musculus, UniProt P15209). Conditions: C57BL/6 male mice, 0.5 and 1 mg/kg i.p., 1 h, cortex and hippocampus, western blot. Background: Immunoblotting shows a protein as a band on a membrane.
TrkB (Mus musculus, UniProt P15209), sequence (P15209 32-821): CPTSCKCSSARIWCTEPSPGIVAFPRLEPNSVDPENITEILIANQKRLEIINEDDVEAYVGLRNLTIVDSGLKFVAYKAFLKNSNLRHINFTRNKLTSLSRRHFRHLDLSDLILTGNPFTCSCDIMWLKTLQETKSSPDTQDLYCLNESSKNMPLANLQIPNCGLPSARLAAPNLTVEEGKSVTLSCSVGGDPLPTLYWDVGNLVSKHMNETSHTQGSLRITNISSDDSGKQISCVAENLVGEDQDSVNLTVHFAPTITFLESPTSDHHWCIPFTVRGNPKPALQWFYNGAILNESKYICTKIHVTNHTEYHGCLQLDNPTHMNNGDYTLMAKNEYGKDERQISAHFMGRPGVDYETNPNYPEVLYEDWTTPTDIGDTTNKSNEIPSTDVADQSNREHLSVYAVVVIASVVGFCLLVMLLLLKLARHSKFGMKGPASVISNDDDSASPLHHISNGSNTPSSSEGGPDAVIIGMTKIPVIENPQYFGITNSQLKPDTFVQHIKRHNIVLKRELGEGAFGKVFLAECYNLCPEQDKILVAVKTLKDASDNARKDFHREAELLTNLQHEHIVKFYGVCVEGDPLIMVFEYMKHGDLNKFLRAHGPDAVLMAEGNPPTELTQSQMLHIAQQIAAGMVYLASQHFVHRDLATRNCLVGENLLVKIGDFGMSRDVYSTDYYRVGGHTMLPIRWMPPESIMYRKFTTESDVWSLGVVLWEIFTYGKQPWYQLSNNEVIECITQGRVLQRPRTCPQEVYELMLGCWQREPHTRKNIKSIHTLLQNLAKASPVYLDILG
Experimental: After 1 hour (unless indicated otherwise), mice were decapitated, blood was collected and brains were rapidly removed on ice. […] The Anti-TrkB antibody is used to quantify the total amount of TrkB. Anti-tubulin is used as a loading control. […] Phosphorylated levels of TrkB are calculated as a ratio between phospho and total TrkB bands in each region
A volume of 10 μl/g body weight was injected. After 1 hour (unless indicated otherwise), mice were decapitated, blood was collected and brains were rapidly removed on ice. Cortex and hippocampus were subsequently dissected and tissues were rapidly washed in ice-cold PBS and transferred into ice-cold solubilization buffer before homogenization at 4° C. Samples were centrifuged at 10,000×g for 10 min at 4° C. Protein concentrations were determined, equal amounts of proteins were loaded, and western blots were performed as described above.
C57Bl6 male mice received an i.p injection of 0.5 and 1 mg/kg for 1 hour before their brain was carefully removed and their cortex and hippocampus were sub-dissected. […] The level of TrkB phosphorylation at Tyrosine 816 was analyzed by western blot (FIG. 3).

TrkA, sequence (P04629 33-796, species assumed): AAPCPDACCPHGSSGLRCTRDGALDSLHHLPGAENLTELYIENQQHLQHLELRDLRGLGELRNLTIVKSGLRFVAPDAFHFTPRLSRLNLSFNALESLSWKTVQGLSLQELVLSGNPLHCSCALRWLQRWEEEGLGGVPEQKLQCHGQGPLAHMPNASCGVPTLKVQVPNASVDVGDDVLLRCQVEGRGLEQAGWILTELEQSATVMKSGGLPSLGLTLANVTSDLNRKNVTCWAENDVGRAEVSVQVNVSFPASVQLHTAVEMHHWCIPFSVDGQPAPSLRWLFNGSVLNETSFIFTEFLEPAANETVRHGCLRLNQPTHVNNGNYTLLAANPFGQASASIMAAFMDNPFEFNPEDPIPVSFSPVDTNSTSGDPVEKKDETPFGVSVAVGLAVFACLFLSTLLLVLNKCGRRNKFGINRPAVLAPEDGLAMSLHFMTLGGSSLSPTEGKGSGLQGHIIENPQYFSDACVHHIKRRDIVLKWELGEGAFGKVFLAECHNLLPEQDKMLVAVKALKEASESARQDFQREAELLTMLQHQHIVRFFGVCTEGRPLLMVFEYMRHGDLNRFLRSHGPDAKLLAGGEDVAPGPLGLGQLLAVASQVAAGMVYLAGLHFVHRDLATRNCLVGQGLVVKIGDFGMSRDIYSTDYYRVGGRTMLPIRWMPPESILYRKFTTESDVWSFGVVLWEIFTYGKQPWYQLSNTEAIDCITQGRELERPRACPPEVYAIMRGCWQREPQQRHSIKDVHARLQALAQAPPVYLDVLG

In the case of `CN1CCN(c2ccc3nnc(CCC(=O)NC4CCN(Cc5ccccc5)CC4)n3n2)CC1` [LIT-TB001, N-(1-benzylpiperidin-4-yl)-3-[6-(4-methylpiperazin-1-yl)-[1,2,4]triazolo[4,3-b]pyridazin-3-yl] propanamide], the “PAM TrkB activity” value in assay [1] is reported as “+++ (+++: >35%)”. For the same compound, the neurite outgrowth result in assay [2] is “potentiates BDNF-”. Further, the “phosphorylation of ERK” value is recorded as “did not induce phosphorylation of ERK or TrkA” in assay [3] and “induced only in the presence of BDNF” in assay [4]. Besides, the “phosphorylation of TrkA” value in assay [3] was “did not induce phosphorylation of ERK or TrkA”. Moreover, the “phosphorylation of TrkB” value in assay [4] (15 min) was “induced only in the presence of BDNF”. For the same compound, in assay [5], the “effect on catalytic activity of 45 kinases (among them TrkA)” value was “does not activate neither block the catalytic activity of the tested kinases”. Also, the “TrkB activation (phospho-TrkB/total TrkB) in the brain” value in assay [6] is recorded as “efficiently increases TrkB activation in the brain”.
In the case of `O=C(CCc1nnc2ccc(N3CCC(N4CCCCC4)CC3)nn12)NC1CCN(Cc2ccccc2)CC1` [LIT-TB003, 3-(6-([1,4′-bipiperidin]-1′-yl)-[1,2,4]triazolo[4,3-b]pyridazin-3-yl)-N-(1-benzylpiperidin-4-yl) propanamide], the “PAM TrkB activity” value in assay [1] was “++ (++: 20-35%)”.
Same read-out and setting: as for `CN1CCN(c2ccc3nnc(CCC(=O)NC4CCN(Cc5ccccc5)CC4)n3c2)CC1` [LIT-TB006, N-(1-benzylpiperidin-4-yl)-3-(6-(4-methylpiperazin-1-yl)-[1,2,4]triazolo[4,3-a]pyridin-3-yl)propanamide], the entry is “+++ (+++: >35%)”; as for `CN1CCN(c2ccc3nnc(CCC(=O)NC4CCN(Cc5ccc(F)cc5F)CC4)n3n2)CC1` [LIT-TB040, N-{1-[(2,4-difluorophenyl)methyl]piperidin-4-yl}-3-[6-(4-methylpiperazin-1-yl)-[1,2,4]triazolo[4,3-b]pyridazin-3-yl]propanamide], “++ (++: 20-35%)”.
As for `CN1CCN(c2ccc3nnc(CCC(=O)NC4CCC(Cc5ccccc5)CC4)n3n2)CC1` (centres unmarked) [LIT-TB034, N-(4-benzylcyclohexyl)-3-[6-(4-methylpiperazin-1-yl)-[1,2,4]triazolo[4,3-b]pyridazin-3-yl]propanamide], the “PAM TrkB activity” value in assay [1] is on record as “+ (+: <20%)”.
In the case of `CN1CCN(c2ccc3nnc(CCC(=O)N[C@H]4CCN(Cc5ccccc5)C[C@@H]4F)n3n2)CC1` [LIT-TB048, N-[(3S,4S)-1-benzyl-3-fluoropiperidin-4-yl]-3-[6-(4-methylpiperazin-1-yl)-[1,2,4]triazolo[4,3-b]pyridazin-3-yl]propanamide], the “PAM TrkB activity” value in assay [1] was “+++ (+++: >35%)”.
Consider `Cc1[nH]cnc1CN1CCC(NC(=O)CCc2nnc3ccc(N4CCN(C)CC4)nn23)CC1` [LIT-TB032, N-{1-[(5-methyl-1H-imidazol-4-yl)methyl]piperidin-4-yl}-3-[6-(4-methylpiperazin-1-yl)-[1,2,4]triazolo [4,3-b]pyridazin-3-yl]propanamide], for which the “PAM TrkB activity” value in assay [1] is given as “+++ (+++: >35%)”.
